Experimental data taken from patent publication US9233957B2, “5-carbamoyl-adamantan-2-yl amide derivatives, pharmaceutically acceptable salts thereof and preparation process thereof” (SK BIOPHARMACEUTICALS CO., LTD., priority 2011, dated 2016).
Where two headings read alike, the source gives them in different places.

Experiments:
[1] = target: T1, 11b-HSD1 (Mus musculus, UniProt P50172); assay: Ex vivo PD assay: 11b-HSD1 inhibition in abdominal fat and liver tissue after oral administration to mice; conditions: mouse C57B1/6, oral, vs vehicle group; for inhibition at 10 mg/kg: 2 hr; for inhibition at 20 mg/kg: 6 hr
T1 construct: the tissues in abdominal fat and the liver were obtained; from tissue; host or cells: abdominal fat and liver of C57Bl/6 mice
T1 sequence (P50172 whole entry): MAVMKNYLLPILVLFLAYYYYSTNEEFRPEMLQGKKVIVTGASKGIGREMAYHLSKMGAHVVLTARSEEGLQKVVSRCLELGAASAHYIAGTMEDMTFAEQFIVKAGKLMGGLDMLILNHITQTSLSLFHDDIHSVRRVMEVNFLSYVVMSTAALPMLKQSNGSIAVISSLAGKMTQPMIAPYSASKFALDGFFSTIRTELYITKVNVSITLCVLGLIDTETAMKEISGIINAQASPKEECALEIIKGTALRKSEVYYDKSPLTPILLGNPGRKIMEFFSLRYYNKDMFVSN
Procedure: The prepared compound was orally administered to a mouse (C57B1/6, orient 8 week old, about 25 g, male) and in a proper amount of time (2 hours, 6 hours, 12 hours, 16 hours, and 24 hours), the mouse was sacrificed and around 30 to 40 mg of the tissues in abdominal fat and the liver were obtained. To 500 ul of a medium (RPMI, gibco) including 1 μM of cortisone (from Sigma Co. Ltd.) and 400 μM of NADPH (from Sigma Co. Ltd) was added the tissue as obtained (30-40 mg), which then reacted in a cell cultivator at 37° C. for 3 hours. After 50 ul of the reacted solution was taken and diluted with DMEM medium at a volume ratio of 1/10, the amount of cortisol being generated was measured by using a cortisol kit (assay designs Co. Ltd., ELISA kit) in accordance with the method set forth in the appended manual. From the results being measured, the degree of the inhibition was obtained by the conversion in comparison with the vehicle group (vehicle: 5% DMSO+5% cremophor in dw, the amount being proportionate to the body weight, i.e., the administration was made at the same volume as the drug being introduced). • Reference material: Published Aug. 15, 2005//JEM vol. 202 no. 4 517-527 The Rockefeller University Press % inhibition={(the amount of cortisol of the vehicle group−the amount of the cortisol of the group with the compound being administered)/(the amount of cortisol of the vehicle group)}×100
According to the above analyzing method, the efficacy of inhibiting 11b-HSD1 of the test compound in the target organ was calculated as % inhibition values, which are shown in Table 2 and Table 3.

[2] = target: T2, Mouse 11b-HSD1 (Mus musculus, UniProt P50172); assay: Inhibition of cortisone-to-cortisol conversion in CHO-K1 cells over-expressing mouse 11b-HSD1 (HTRF cortisol assay); format: cell-based; conditions: CHO-K1 cells over-expressing mouse 11b-HSD1, 160 nM cortisone, 3 hours, 37° C.
T2 construct: expressed in transfected cells
T2 sequence (P50172 whole entry): as above
Excerpt: (§1) cDNA (human: Accession No. U12978.2; mouse: Accession No. NM_008288.2) coding the full-length amino acid sequence of 11β-HSD1 in a human and a mouse was incorporated into pMSCVpuro (from Clontech. Co. Ltd.), a vector of expressing a mammalian cell for the production of a retrovirus, and the resulting product was introduced into a GP2-293 cell (from Clontech Co. Ltd.), a retrovirus packing cell line together with pVSV-G vector (from Clontech Co. Ltd.) by using a Lipotamine plus reagent (from Invitrogen Co. Ltd.) in accordance with the method set forth in the appendix (by using HTRF cortisol assay kit from Cisbio assays Co., Ltd., catalog No. 62CO2PEB) and stabilized for 48 hours. Thereafter, viruses being obtained from those cells were used to infect CHO-K1 cell (from Korean Cell Line Bank, KCLB No. 10061) and in 24 hours, the cells were treated with 10 μg/ml pumycin (from Sigma Co. Ltd.) for two weeks to produce a stabilized cell system wherein each 11β-HSD1 in humans or in mice was over-expressed. When the cells being maintained, 5 μg/ml of puromycin was put into the medium and used (RPMI (Gibco), 37° C.). • Reference material: The EMBO Journal (2008) 27, 642-653
(§2) The obtained cells with 11b-HSD1 in a human and a mouse being over-expressed were sub-cultured in a 96-well plate with a cell number being 3×10^4 cells per well and stabilized for 24 hours [RPMI (Gibco), at 37° C., as being used in 5 days after thawing]. After a medium as diluted with DMSO including 160 nM of cortisone (from Sigma Co. Ltd.) and a test compound at a different concentration was put into each well in an amount of 200 ul, the well was cultured in a cell cultivator at 37° C. for 3 hours. 10 ul of the cultured solution was put into a 384 well plate and the amount of cortisol as generated was measured using a cortisol kit (from Cisbio international Co. Ltd, HTRF assay) in accordance with the method set forth in the appended manual.
(§3) As a control group, 160 nM of cortisone and 1% of DMSO were put into a corresponding well. The ground value was obtained from a well including only 160 nM of cortisone and 1% of DMSO without cells just like the control group. The calculation for a % inhibition level was made following the manual as appended. • Reference material: The Journal of Steroid Biochemistry and Molecular Biology, Volume 104, Issues 3-5, May 2007, Pages 123-129 • Bioorganic & Medicinal Chemistry Letters Volume 19, Issue 10, 15 May 2009, Pages 2674-2678
(§4) Like the analyzing method as stated above, the efficacy of inhibiting 11b-HSD1 was calculated as IC50 and the results are shown in Table 1: […]

[3] = target: T3, Human 11b-HSD1 (Homo sapiens, UniProt P28845); assay: Inhibition of cortisone-to-cortisol conversion in CHO-K1 cells over-expressing human 11b-HSD1 (HTRF cortisol assay); format: cell-based; conditions: CHO-K1 cells over-expressing human 11b-HSD1, 160 nM cortisone, 3 hours, 37° C.
T3 construct: expressed in transfected cells
T3 sequence (P28845 whole entry): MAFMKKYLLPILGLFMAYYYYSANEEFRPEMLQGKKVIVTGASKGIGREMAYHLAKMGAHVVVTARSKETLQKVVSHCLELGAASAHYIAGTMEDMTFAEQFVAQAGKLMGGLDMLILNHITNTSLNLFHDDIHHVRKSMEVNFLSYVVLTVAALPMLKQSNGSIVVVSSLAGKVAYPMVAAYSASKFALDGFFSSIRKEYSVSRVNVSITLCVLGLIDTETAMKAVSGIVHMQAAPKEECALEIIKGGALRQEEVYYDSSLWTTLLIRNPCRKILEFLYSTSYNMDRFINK
Excerpt: as §1, §2, §3, §4

[4] = abdominal fat, read-out: 11b-HSD1 % inhibition in the fat
[5] = liver, read-out: 11b-HSD1 % inhibition in the liver

Structure (SMILES) | inhibition at 10 mg/kg [1, 4] | inhibition at 10 mg/kg [1, 5] | inhibition at 20 mg/kg [1, 4] | inhibition at 20 mg/kg [1, 5] | IC50 [2] | IC50 [3]
NC(=O)[C@]12CC3CC(C1)[C@@H](NC(=O)c1ccc4ccccc4[n+]1[O-])C(C3)C2 [Example 64, N-(5-carbamoyl-2-adamantyl)-1-oxidoquinolin-1-ium-2-carboxamide] | 51% | 61% | 57% | 48% | 100 to 500 nM | > 500 nM
NC(=O)[C@]12CC3CC(C1)[C@@H](NC(=O)c1ccc4ccccc4n1)C(C3)C2 [Example 18, N-(5-carbamoyl-2-adamantyl)quinoline-2-carboxamide] | 58% | 62% | 65% | 61% | < 100 nM | < 100 nM
NC(=O)[C@]12CC3CC(C1)[C@@H](NC(=O)c1ccc(-c4ccccc4)o1)C(C3)C2 [Example 1, N-(5-carbamoyl-2-adamantyl)-5-phenylfuran-2-carboxamide] | 91% | 85% | 83% | 70% | < 100 nM | < 100 nM
NC(=O)[C@]12CC3CC(C1)[C@@H](NC(=O)c1ccc(-c4ccc(Cl)cc4)o1)C(C3)C2 [Example 2, N-(5-carbamoyl-2-adamantyl)-5-(4-chlorophenyl)furan-2-carboxamide] | 84% | 68% | 85% | 44% | 100 to 500 nM | < 100 nM
